Results on 42 molecules are retold here after the supplement of paper PMC9265050, “Inhibition of RNA Binding in SND1 Increases the Levels of miR-1-3p and Sensitizes Cancer Cells to Navitoclax” (Cancers, 2022).

In this test the test system is SW480. Briefly: drug sensitivity score (DSS, integrated dose-response area); higher = more sensitive (stronger viability reduction); extreme values may be limits of the assay. The method in brief:
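The drug sensitivity score is the integrated area under a fitted non-linear dose–response model. It was derived from SW480 cells with doxycycline-inducible control or SND1-targeting shRNA, induced with 0.1 µg/mL doxycycline for 7 days and plated at 1000 cells per well on 384-well plates of 525 commercially available small-molecule inhibitors at five concentrations. CellTiter-Glo measured viability after 72 h.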

The mark [1] stands for this setting: shRNA: SND1 shRNA1 (SND1 silenced).
The mark [2] stands for this setting: shRNA: SND1 shRNA2 (SND1 silenced).
Setting [3] is: shRNA: control shRNA (non-targeting).

As to `CC(C)(C)C[C@@H]1N[C@@H](C(=O)N[C@H]2CC[C@H](O)CC2)[C@H](c2cccc(Cl)c2F)[C@]12C(=O)Nc1cc(Cl)ccc12`, the drug sensitivity score runs as follows: under setting [1], 1.3 DSS; under setting [2], 1.9 DSS; under setting [3], 3.3 DSS.

On to `CC(C)Oc1ccc(C(=O)N[C@H](CNC(=O)CN(C)C)Cc2ccc(-c3cn4cccc([C@H](C)O)c4n3)cc2)cc1Cl`, for which the drug sensitivity score under setting [1] came to 13.1 DSS, the drug sensitivity score under setting [2] was 12 DSS and the drug sensitivity score under setting [3] came out at 13.3 DSS.

Turning to `CCn1c(-c2nonc2N)nc2c(C#CC(C)(C)O)ncc(OC[C@H]3CCCNC3)c21`, the drug sensitivity score is 0.9 DSS under setting [1] and 2 DSS under setting [3].

`CNC(=O)c1ccccc1Nc1nc(Nc2ccc3c(c2OC)CCC[C@H](N2CCN(CCO)CC2)C3)ncc1Cl`: the drug sensitivity score is 3.9 DSS under setting [1], 3.5 DSS under setting [2] and 5.5 DSS under setting [3].

`C[C@@H]1CN(CC(=O)Nc2ccc3c(c2)Cc2cccc(-c4cc(=O)cc(N5CCOCC5)o4)c2S3)C[C@H](C)O1`: the drug sensitivity score was 6.4 DSS under setting [1] and 5.3 DSS under setting [3].

In the case of `C[C@H]1Oc2cc(cnc2N)-c2c(nn(C)c2C#N)CN(C)C(=O)c2ccc(F)cc21`, the drug sensitivity score under setting [1] is 0.2 DSS, the drug sensitivity score under setting [2] is 0.4 DSS and the drug sensitivity score under setting [3] amounted to 1.9 DSS.

On to `Cc1ccc(C(=O)N(CCCN)[C@@H](c2oc3cc(Cl)ccc3c(=O)c2Cc2ccccc2)C(C)C)cc1`, for which the drug sensitivity score is 2.9 DSS under setting [1], 3.7 DSS under setting [2] and 5.5 DSS under setting [3].

In the case of `Cc1ccc2nc(CN(CCN(Cc3nc4ccc(C)cc4[nH]3)Cc3nc4ccc(C)cc4[nH]3)Cc3nc4ccc(C)cc4[nH]3)[nH]c2c1`, the drug sensitivity score runs as follows: under setting [1], 1.5 DSS; under setting [2], 1.3 DSS; under setting [3], 2.1 DSS.

Take `Cc1ncc(Cl)cc1NCc1ccc(C(=O)N[C@@H](CC2CCCC2)C(=O)NC2CC2)s1`: the drug sensitivity score runs as follows: under setting [1], 0 DSS; under setting [2], 0 DSS; under setting [3], 0.3 DSS.

With `N#Cc1ccc(COC[C@H]2O[C@@H](n3c(NCc4ccc(Cl)c(Cl)c4)nc4c(N)ncnc43)[C@H](O)[C@@H]2O)cc1`, the drug sensitivity score under setting [1] turned out to be 0 DSS, the drug sensitivity score under setting [2] amounted to 0 DSS and the drug sensitivity score under setting [3] was 0.1 DSS.

As to `COc1ccc(C[C@H](NC(=O)[C@H](C)NC(=O)CN2CCOCC2)C(=O)N[C@@H](Cc2ccccc2)C(=O)C2(C)CO2)cc1` (stereo in doubt) [ONX-0914], the drug sensitivity score was determined as 12.9 DSS under setting [1], 12.6 DSS under setting [2] and 15.4 DSS under setting [3].

`Cn1cc(C[C@@H](N)C(=O)O)c2ccccc21` [1-methyl-D-tryptophan]: the drug sensitivity score turned out to be 0 DSS under setting [1] and 0 DSS under setting [3].

Regarding `COc1cc2c(cc1O)CC[C@@H]1[C@@H]2CC[C@]2(C)[C@@H](O)CC[C@@H]12` [2-methoxyestradiol], the drug sensitivity score is, setting by setting: under setting [1], 5.5 DSS; under setting [2], 6.6 DSS; under setting [3], 6.1 DSS.

Consider `CC/C(=C(\c1ccc(O)cc1)c1ccc(OCCN(C)C)cc1)c1ccccc1` [4-hydroxytamoxifen], for which the drug sensitivity score amounted to 6.8 DSS under setting [1], 5.4 DSS under setting [2] and 8.7 DSS under setting [3].

In the case of `Nc1ncnc2c1nc(N)n2[C@@H]1O[C@H](CO)[C@@H](O)[C@H]1O` [8-amino-adenosine], the drug sensitivity score reads like this: under setting [1], 23.6 DSS; under setting [2], 24.3 DSS; under setting [3], 22.2 DSS.

Consider `Nc1ncnc2c1nc(Cl)n2[C@@H]1O[C@H](CO)[C@@H](O)[C@H]1O` [8-chloro-adenosine], for which the drug sensitivity score runs as follows: under setting [1], 13.5 DSS; under setting [2], 13.3 DSS; under setting [3], 11.3 DSS.

Turning to `CCCCC/C=C/C=C1/C(=O)C=C[C@@H]1C/C=C\CCCC(=O)O` [15D-PGJ2], the drug sensitivity score stood at 1.7 DSS under setting [1], 0 DSS under setting [2] and 0 DSS under setting [3].

With `COc1cc(O)c2c(c1)/C=C/C[C@H](O)[C@H](O)C(=O)/C=C\C[C@H](C)OC2=O` [(5Z)-7-Oxozeaenol], the drug sensitivity score was 3.7 DSS under setting [1], 2.6 DSS under setting [2] and 3.6 DSS under setting [3].

For the molecule `COc1ccc(S(=O)(=O)Nc2cccnc2Nc2ccc(O)cc2)cc1` [ABT-751], the drug sensitivity score under setting [1] worked out at 9 DSS, the drug sensitivity score under setting [2] came out at 9.1 DSS and the drug sensitivity score under setting [3] amounted to 9.5 DSS.

Consider `Cc1ccccc1C(C(=O)NC1CCCCC1)N(C(=O)Cn1ccnc1C)c1cccc(F)c1` (stereo not drawn) [AGI-5198], for which the drug sensitivity score reads like this: under setting [1], 0 DSS; under setting [3], 3.6 DSS.

As for `O=C(Nc1cccc(C(F)(F)F)c1)Nc1cc(S(=O)(=O)NC2CC2)ccc1-c1ccsc1` [AGI-6780], the drug sensitivity score reads like this: under setting [1], 0.2 DSS; under setting [3], 0.5 DSS.

`COc1ccc2c(OCc3nnc4ccc(-c5ccccc5)nn34)ccnc2c1` [AMG-208]: the drug sensitivity score by setting is: under setting [1], 0 DSS; under setting [2], 2 DSS; under setting [3], 0.5 DSS.

Consider `CC(C)[C@@H](CS(=O)(=O)C(C)C)N1C(=O)[C@@](C)(CC(=O)O)C[C@H](c2cccc(Cl)c2)[C@H]1c1ccc(Cl)cc1` [AMG-232], for which the drug sensitivity score by setting is: under setting [1], 0 DSS; under setting [2], 0 DSS; under setting [3], 0 DSS.

`Cc1csc(-c2nnc(Nc3ccc(Oc4ncccc4-c4ccnc(N)n4)cc3)c3ccccc23)c1` [AMG-900]: the drug sensitivity score under setting [1] was 5 DSS, the drug sensitivity score under setting [2] is 0 DSS and the drug sensitivity score under setting [3] was found to be 1.7 DSS.

As to `CC1CCC(n2c3cnccc3c3cnc(Nc4ccc5c(n4)CCN(C(=O)CO)C5)nc32)CC1` (stereo not drawn) [AMG-925], the drug sensitivity score is, setting by setting: under setting [1], 1.1 DSS; under setting [2], 0 DSS; under setting [3], 0 DSS.

The molecule `COCC1(CO)C(=O)C2CCN1CC2` (stereo not drawn) [APR-246] had a drug sensitivity score under setting [1] of 0 DSS, a drug sensitivity score under setting [2] of 1.1 DSS and a drug sensitivity score under setting [3] of 2 DSS.

On to `CC(C)[C@H](C(=O)Nc1ccc(C(=O)NO)cc1)c1ccccc1` [AR-42], for which the drug sensitivity score under setting [1] came to 19.6 DSS, the drug sensitivity score under setting [2] was 12.9 DSS and the drug sensitivity score under setting [3] is 10.9 DSS.

Regarding `CNC(=O)c1ccc(N2C(=S)N(c3cnc(C#N)c(C(F)(F)F)c3)C(=O)C23CCC3)cc1F` [ARN 509], the drug sensitivity score turned out to be 0.7 DSS under setting [1], 0 DSS under setting [2] and 0.9 DSS under setting [3].

For the molecule `COc1cc(N2CCC(N3CCN(C)CC3)CC2)ccc1Nc1ncnc(Nc2ccccc2S(=O)(=O)C(C)C)n1` [ASP3026], the drug sensitivity score stood at 4.6 DSS under setting [1], 5 DSS under setting [2] and 8 DSS under setting [3].

For the molecule `O=C(NC1CCNCC1)c1n[nH]cc1NC(=O)c1c(Cl)cccc1Cl` [AT7519], the drug sensitivity score runs as follows: under setting [1], 10.7 DSS; under setting [2], 9.1 DSS; under setting [3], 14.4 DSS.

Consider `O=C(Nc1c[nH]nc1-c1nc2ccc(CN3CCOCC3)cc2[nH]1)NC1CC1` [AT9283], for which the drug sensitivity score by setting is: under setting [1], 3.6 DSS; under setting [2], 0 DSS; under setting [3], 0.6 DSS.

On to `CN[C@@H](C)C(=O)N[C@H]1CN(C(=O)CC(C)C)CC[C@H]2CC[C@@H](C(=O)NC(c3ccccc3)c3ccccc3)N2C1=O` [AT-406], for which the drug sensitivity score reads like this: under setting [1], 0 DSS; under setting [2], 0 DSS; under setting [3], 0 DSS.

Take `CC[C@H](CC#N)OC(=O)N[C@@H](C)c1cccc(NC(=O)Nc2ccc(-c3cnco3)c(OC)c2)c1` [AVN944]: the drug sensitivity score was found to be 13.4 DSS under setting [1] and 12.3 DSS under setting [3].

Take `COc1cc(N2CCN(C)CC2)ccc1Nc1nccc(-c2cn(C)c3cnccc23)n1` [AZ191]: the drug sensitivity score by setting is: under setting [1], 6.8 DSS; under setting [3], 7.9 DSS.

As for `COc1cc(OC2CCN(C)CC2)ccc1Nc1ncc2c(n1)n(C1CCCC1)c(=O)n2C` [AZ 3146], the drug sensitivity score was found to be 10.9 DSS under setting [1], 10.6 DSS under setting [2] and 9.5 DSS under setting [3].

`CC(C)Oc1cc(Nc2nc(N[C@@H](C)c3ccc(F)cn3)ncc2Cl)n[nH]1` [AZ-23]: the drug sensitivity score amounted to 3.1 DSS under setting [1], 1.9 DSS under setting [2] and 4.5 DSS under setting [3].

As for `N[C@@H]1CCCN(c2c(/C=C3\SC(=O)NC3=O)cccc2-c2ccccc2)C1` [AZD1208], the drug sensitivity score is, setting by setting: under setting [1], 0 DSS; under setting [3], 0 DSS.

On to `Cc1cc(Nc2nc(N[C@@H](C)c3ncc(F)cn3)ncc2Cl)[nH]n1` [AZD1480], for which the drug sensitivity score was 0.6 DSS under setting [1], 0 DSS under setting [2] and 1.1 DSS under setting [3].

Turning to `CNC(=O)c1cccc(-c2ccc3c(N4CCOC[C@@H]4C)nc(N4CCOC[C@@H]4C)nc3n2)c1` [AZD2014], the drug sensitivity score by setting is: under setting [1], 13.2 DSS; under setting [2], 12.6 DSS; under setting [3], 9.6 DSS.

With `COc1cc(CCc2cc(NC(=O)c3ccc(N4CC(C)NC(C)C4)cc3)n[nH]2)cc(OC)c1` (stereo not drawn) [AZD4547], the drug sensitivity score was determined as 2.9 DSS under setting [1], 0 DSS under setting [2] and 1.6 DSS under setting [3].

With `CN(C)C(=O)c1ccc(S(=O)(=O)c2ccc(NC(=O)[C@@](C)(O)C(F)(F)F)c(Cl)c2)cc1` [AZD7545], the drug sensitivity score is, setting by setting: under setting [1], 0 DSS; under setting [2], 2.4 DSS; under setting [3], 0 DSS.

Consider `NC(=O)Nc1cc(-c2cccc(F)c2)sc1C(=O)N[C@H]1CCCNC1` [AZD7762], for which the drug sensitivity score under setting [1] amounted to 7.8 DSS, the drug sensitivity score under setting [2] was found to be 8.6 DSS and the drug sensitivity score under setting [3] was found to be 8.7 DSS.
